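Assay format: 96-well plates, 48-hour exposure. At the GI50, growth is halved. TGI: total growth inhibition.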

Some test systems named below: A498 renal; ACHN renal; CCRF-CEM leukemia; HOP-62 NSCLC; HT29 colon; LOX IMVI melanoma; NCI-H23 lung; NCI-H460 lung; NCI-H522 lung; SF-268 CNS.
Common to all, as to test: NCI tumour cell line growth inhibition, 48 h

Consider `COc1cc(Cn2c(-c3ccccc3)cc3c2-c2oncc2CC3)cc(OC)c1OC`, for which the GI50 in the test on A498 renal was 0.271 µM; in the test with ACHN renal, 0.961 µM; in the test with CCRF-CEM leukemia it was 0.857 µM; in the test on HOP-62 NSCLC, 2.37 µM; in the test with HT29 colon it was 0.446 µM; in the test on LOX IMVI melanoma, 0.831 µM. Also, the GI50 with NCI-H23 lung is 2.57 µM; with NCI-H460 lung, 0.452 µM; in the test on NCI-H522 lung it was 0.294 µM; in the test with SF-268 CNS, 5.77 µM. Also, the TGI with A498 renal is 2.06 µM; in the test with ACHN renal it was more than 100 µM; in the test with CCRF-CEM leukemia it was more than 100 µM; in the test with HOP-62 NSCLC, more than 100 µM; in the test on HT29 colon it was 47.2 µM; in the test with LOX IMVI melanoma, more than 100 µM. The TGI with NCI-H23 lung is more than 100 µM; in the test on NCI-H460 lung, more than 100 µM; with NCI-H522 lung, 5.99 µM; in the test with SF-268 CNS it was more than 100 µM.
In the case of `COC(=O)[C@]12CCC(C)(C)C[C@H]1C1=CC[C@@H]3[C@@]4(C)C/C(=C/c5cccnc5)C(=O)C(C)(C)[C@@H]4CC[C@@]3(C)[C@]1(C)CC2`, the GI50 in the test on A498 renal is 11.6 µM; with ACHN renal, 8.05 µM; with CCRF-CEM leukemia, 2.81 µM; in the test on HOP-62 NSCLC, 13.6 µM; in the test on HT29 colon, 5 µM; with LOX IMVI melanoma it was 4.63 µM. The GI50 in the test on NCI-H23 lung is 8.05 µM; in the test with NCI-H460 lung, 5.53 µM; in the test on NCI-H522 lung, 8.58 µM; with SF-268 CNS it was 11.8 µM. Also, the TGI in the test with A498 renal was 26.4 µM; in the test with ACHN renal, 24.5 µM; in the test with CCRF-CEM leukemia, 13.7 µM; in the test with HOP-62 NSCLC it was 67 µM; in the test on HT29 colon it was 65.9 µM; in the test on LOX IMVI melanoma, 17.8 µM. Also, the TGI in the test with NCI-H23 lung was 29.8 µM; in the test with NCI-H460 lung, 26.6 µM; in the test with NCI-H522 lung it was 28.7 µM; in the test on SF-268 CNS it was 54 µM.
As to `COc1cccc(NCc2nnc(Nc3ccc(Cl)cc3)c3ccccc23)c1`, the GI50 in the test on A498 renal is 1.27 µM; in the test with ACHN renal, 1.56 µM; in the test on CCRF-CEM leukemia, 2.73 µM; with HOP-62 NSCLC it was 2.06 µM; with HT29 colon it was 0.34 µM; with LOX IMVI melanoma, 1.11 µM. Also, the GI50 in the test on NCI-H23 lung is 1.22 µM; in the test with NCI-H460 lung, 2.69 µM; with NCI-H522 lung it was 0.302 µM; in the test with SF-268 CNS, 2.05 µM. The TGI in the test with A498 renal was found to be 4.42 µM; with ACHN renal, 24.4 µM; in the test with CCRF-CEM leukemia, 13.4 µM; in the test on HOP-62 NSCLC it was 8.48 µM; with HT29 colon it was 3.62 µM; in the test with LOX IMVI melanoma it was 4.84 µM. In addition, the TGI with NCI-H23 lung amounted to 6.74 µM; with NCI-H460 lung it was 7.14 µM; with NCI-H522 lung, 3.31 µM; in the test on SF-268 CNS it was 10.5 µM.
Regarding `O=c1[nH]c(=O)n(C2CC(O)C(CS)O2)cc1F` (stereo not given), the TGI in the test with A498 renal was more than 86.2 µM; in the test on ACHN renal it was more than 92.4 µM; in the test with CCRF-CEM leukemia it was more than 100 µM; with HOP-62 NSCLC it was more than 93.8 µM; with HT29 colon, more than 100 µM; in the test with LOX IMVI melanoma it was more than 100 µM. For the same molecule, the TGI in the test with NCI-H23 lung, in the test with NCI-H460 lung, in the test on NCI-H522 lung and in the test with SF-268 CNS was more than 100 µM in each case.

The values above are taken from PubChem BioAssay (NCI).
